Results from patent publication US10377770B2 (Novartis AG, priority 2015, dated 2019).

Each compound was assayed against C-Raf FL (full length CRAF with Y340E and Y341E activating mutations, co-expressed with h14-3-3 zeta) (Homo sapiens (Human), UniProt P04049, Y340E/Y341E) (assay: In vitro Raf activity determination, AlphaScreen p-MEK readout, c-Raf (C-Raf FL)). Conditions: c-Raf approximately 4 nM, ATP 1 μM, pre-incubation 60 minutes, reaction 1 hour.
Type: biochemical
Method in brief: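 Phosphorylation of kinase-dead biotinylated MEK1 (~10 nM) by C-Raf FL (~4 nM) read by AlphaScreen luminescence with anti-phospho-MEK1/2 after EDTA stop. ATP was 1 μM, with a 1 h reaction at room temperature. Compounds were pre-incubated with enzyme and substrate for 60 min in Tris/MgCl2 buffer, pH 7.5.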

C-Raf FL (full length CRAF with Y340E and Y341E activating mutations, co-expressed with h14-3-3 zeta), sequence (P04049 whole entry Y340E/Y341E): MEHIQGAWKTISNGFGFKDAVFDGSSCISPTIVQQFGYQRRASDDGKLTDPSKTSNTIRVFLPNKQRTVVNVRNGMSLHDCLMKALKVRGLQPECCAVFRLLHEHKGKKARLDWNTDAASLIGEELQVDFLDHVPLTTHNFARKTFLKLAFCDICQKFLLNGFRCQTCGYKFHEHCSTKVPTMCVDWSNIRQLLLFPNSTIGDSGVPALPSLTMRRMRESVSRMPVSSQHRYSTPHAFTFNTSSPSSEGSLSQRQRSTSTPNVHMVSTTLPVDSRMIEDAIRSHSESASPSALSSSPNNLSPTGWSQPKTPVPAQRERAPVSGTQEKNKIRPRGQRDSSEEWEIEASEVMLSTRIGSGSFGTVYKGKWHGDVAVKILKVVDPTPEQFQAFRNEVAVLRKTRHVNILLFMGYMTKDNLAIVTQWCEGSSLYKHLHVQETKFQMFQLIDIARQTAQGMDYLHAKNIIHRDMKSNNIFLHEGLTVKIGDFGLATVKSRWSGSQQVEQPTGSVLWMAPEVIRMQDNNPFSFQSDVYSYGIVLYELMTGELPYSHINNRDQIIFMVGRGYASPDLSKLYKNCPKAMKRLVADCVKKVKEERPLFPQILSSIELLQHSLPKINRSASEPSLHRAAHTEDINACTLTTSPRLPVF
C-Raf FL (full length CRAF with Y340E and Y341E activating mutations, co-expressed with h14-3-3 zeta), sequence (P63104 whole entry partner): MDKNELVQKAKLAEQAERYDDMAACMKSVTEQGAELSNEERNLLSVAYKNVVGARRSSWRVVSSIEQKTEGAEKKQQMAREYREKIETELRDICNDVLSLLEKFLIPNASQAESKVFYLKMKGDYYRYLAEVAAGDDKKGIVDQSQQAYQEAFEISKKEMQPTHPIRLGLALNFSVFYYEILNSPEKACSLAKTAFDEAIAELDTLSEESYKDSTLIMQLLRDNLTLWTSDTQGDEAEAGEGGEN

Point of comparison: `Cc1ncc(NC(=O)c2ccnc(C(C)(F)F)c2)cc1-c1ccc2c(c1)N1CCOCC[C@H]1C[C@H]2O` [Example 98, 2-(1,1-difluoroethyl)-N-(5-((5aS,7R)-7-hydroxy-1,2,5,5a,6,7-hexahydro-4H-[1,4]oxazepino[4,5-a]quinolin-10-yl)-6-methylpyridin-3-yl)isonicotinamide], IC50 0.56 nM. Against it:
- Cc1ccc(NC(=O)c2ccnc(C(C)(F)F)c2)cc1-c1cnc2c(c1)N1CCOC[C@H]1CC(=O)N2CC(C)(C)O [Example 289, (R)-2-(1,1-difluoroethyl)-N-(3-(7-(2-hydroxy-2-methylpropyl)-6-oxo-2,4,4a,5,6,7-hexahydro-1H-[1,4]oxazino[4,3-d]pyrido[2,3-b][1,4]diazepin-10-yl)-4-methylphenyl) isonicotinamide] — 1.6-fold higher, 0.9 nM
- Cc1ccc(NC(=O)c2ccnc(C(F)(F)F)c2)cc1-c1cnc2c(c1)C1CCOCC1OC(=O)N2CCO (stereo not drawn) [Example 330, N-(3-((4,11b-cis)-7-(2-hydroxyethyl)-6-oxo-2,4,4a,6,7,11b-hexahydro-1H-pyrano[4,3-f]pyrido[2,3-d][1,3]oxazepin-10-yl)-4-methylphenyl)-2-(trifluoromethyl) isonicotinamide] — 5.5-fold higher, 3.1 nM
- Cc1ccc(NC(=O)c2ccnc(C(C)(F)F)c2)cc1-c1cnc2c(c1)N1CCOCC1CC2O (racemic) [Example 107, rac-cis-2-(1,1-Difluoroethyl)-N-(3-(6-hydroxy-1,2,4,4a,5,6-hexahydro-[1,4]oxazino[4,3-a][1,5]naphthyridin-n-9-yl)-4-methylphenyl)isonicotinamide] — 29-fold lower, 0.019 nM
- CCN1C(=O)[C@@H]2COCC[C@H]2c2cc(-c3cc(NC(=O)c4ccnc(C(C)(C)F)c4)ccc3C)cnc21 [Example 254, N-(3-((4aS, 10bR)-6-ethyl-5-oxo-2,4,4a,5,6,10b-hexahydro-1H-pyrano[3,4-c][1,8]naphthyridin-9-yl)-4-methylphenyl)-2-(2-fluoropropan-2-yl)isonicotinamide] — 2.8-fold lower, 0.2 nM
- CCN1C(=O)O[C@H]2COCC[C@@H]2c2cc(-c3cc(NC(=O)c4ccnc(C(F)(F)F)c4)ccc3C)cnc21 [Example 305, N-(3-((4aR,11bR)-7-ethyl-6-oxo-2,4,4a,6,7,11b-hexahydro-1H-pyrano[4,3-f]pyrido[2,3-d][1,3]oxazepin-10-yl)-4-methylphenyl)-2-(trifluoromethyl) isonicotinamide] — 1.9-fold lower, 0.3 nM
- Cc1ncc(NC(=O)c2ccnc(C(C)(F)F)c2)cc1-c1ccc2c(c1)N1CCOCC1CC2O (racemic) [Example 11, (rac)-2-(1,1-difluoroethyl)-N-(5-(6-hydroxy-1,2,4,4a,5,6-hexahydro-[1,4]oxazino[4,3-a]quinolin-9-yl)-6-methylpyridin-3-yl)isonicotinamide] — 57-fold lower, 0.0098 nM
- Cc1ccc(NC(=O)c2ccnc(C(F)(F)F)c2)cc1-c1cnc2c(c1)N1CCOCC1C(F)(F)C2O (racemic) [Example 166, rac-cis-N-(3-(5,5-difluoro-6-hydroxy-1′2′4′4a′5′6-hexahydro-[1,4]oxazino[4,3-a][1,5]naphthyridin-9-yl)-4-methylphenyl)-2-(trifluoromethyl)isonicotinamide] — 51-fold lower, 0.011 nM
- Cc1ccc(NC(=O)c2ccnc(C(F)(F)F)c2)cc1-c1ccc2c(c1)N1CCOC[C@H]1[C@](F)(CO)C2 [Example 381, N-(3-((4aS,5S)-5-fluoro-5-(hydroxymethyl)-1,2,4,4a,5,6-hexahydro-[1,4]oxazino[4,3-a]quinolin-9-yl)-4-methylphenyl)-2-(trifluoromethyl)isonicotinamide] — 1.9-fold lower, 0.3 nM
- Cc1ccc(NC(=O)c2ccnc(C(C)(F)F)c2)cc1-c1ccc2c(c1)N1CCOC[C@H]1C[C@H]2O [Example 13, 2-(1,1-difluoroethyl)-N-(3-((4aR,6R)-6-hydroxy-1,2,4,4a,5,6-hexahydro-[1,4]oxazino[4,3-a]quinolin-9-yl)-4-methylphenyl)isonicotinamide] — 100-fold lower, 0.0055 nM
- CCN1C(=O)C2COCC[C@]2(C)c2cc(-c3cc(NC(=O)c4cncc(C(F)(F)F)c4)ccc3C)cnc21 (stereo in doubt) [Example 345, N-(3-((4a,10b-trans)-6-ethyl-10b-methyl-5-oxo-1,4,4a,5,6,10b-hexahydro-2H-pyrano[3,4-c][1,8]naphthyridin-9-yl)-4-methylphenyl)-5-(trifluoromethyl)nicotinamide] — within 1.5-fold, 0.8 nM
- Cc1ccc(NC(=O)c2ccnc(C(C)(C)C#N)c2)cc1-c1cnc2c(c1)N1CCOC[C@@H]1C[C@@H]2O [Example 151, 2-(2-cyanopropan-2-yl)-N-(3-((4aS,6S)-6-hydroxy-1,2,4,4a,5,6-hexahydro-[1,4]oxazino[4,3-a][1,5]naphthyridin-9-yl)-4-methylphenyl)isonicotinamide] — 40-fold lower, 0.014 nM
- Cc1ncc(NC(=O)c2ccnc(C(C)(F)F)c2)cc1-c1ccc2c(c1)N1CCOCCC1CC2O (racemic) [Example 96, (rac)-2-(1,1-difluoroethyl)-N-(5-(7-hydroxy-1,2,5,5a,6,7-hexahydro-4H-[1,4]oxazepino[4,5-a]quinolin-10-yl)-6-methylpyridin-3-yl)isonicotinamide] — 11-fold lower, 0.053 nM
- Cc1ccc(NC(=O)c2ccnc(C(C)(F)F)c2)cc1-c1cc2c(cc1F)C[C@@](F)(CO)[C@@H]1COCCN21 [Example 481, N-(3-((4aS,5S)-5,8-difluoro-5-(hydroxymethyl)-1,2,4,4a,5,6-hexahydro-[1,4]oxazino[4,3-a]quinolin-9-yl)-4-methylphenyl)-2-(1,1-difluoroethyl)iso-nicotinamide] — 2-fold higher, 1.1 nM
- Cc1ncc(NC(=O)c2cccc(C(F)(F)F)c2)cc1-c1ccc2c(c1)N1CCOCC1CC2O (racemic) [Example 9, (rac)-N-(5-(6-hydroxy-1,2,4,4a,5,6-hexahydro-[1,4]oxazino[4,3-a]quinolin-9-yl)-6-methylpyridin-3-yl)-3-(trifluoromethyl)benzamide] — 11-fold lower, 0.051 nM
- CCN1C(=O)C[C@H]2COCCN2c2cc(-c3cc(NC(=O)c4cnnc(C(F)(F)F)c4)ccc3C)cnc21 [Example 326, (S)-N-(3-(7-ethyl-6-oxo-2,4,4a,5,6,7-hexahydro-1H-[1,4]oxazino[4,3-d]pyrido[2,3-b][1,4]diazepin-10-yl)-4-methylphenyl)-6-(trifluoromethyl) pyridazine-4-carboxamide] — within 1.5-fold, 0.5 nM
- Cc1ccc(NC(=O)c2ccnc(C(F)(F)F)c2)cc1-c1cc2c(nn1)[C@H](O)C[C@@H]1COCCN21 (racemic) [Example 48, (rac)-(trans)-N-(3-(5-hydroxy-5,6,6a,7,9,10-hexahydropyridazino[3′,4′:5,6]pyrido[2,1-c][1,4]oxazin-2-yl)-4-methylphenyl)-2-(trifluoromethyl)isonicotinamide] — 11-fold lower, 0.049 nM
- CCN1C(=O)[C@@H]2COCC[C@H]2c2cc(-c3cc(NC(=O)c4ccnc(C(F)(F)F)c4)cnc3C)cnc21 [Example 252, N-(5-((4aS, 10bR)-6-ethyl-5-oxo-2,4,4a,5,6,10b-hexahydro-1H-pyrano[3,4-c][1,8]naphthyridin-9-yl)-6-methylpyridin-3-yl)-2-(trifluoromethyl) isonicotinamide] — 5.6-fold lower, 0.1 nM
- Cc1ccc(NC(=O)c2cncc(C(F)(F)F)c2)cc1-c1cnc2c(c1)[C@@H]1CCOC[C@H]1C(=O)N2CCO [Example 306, N-(3-((4aS,10bR)-6-(2-hydroxyethyl)-5-oxo-2,4,4a,5,6,10b-hexahydro-1H-pyrano[3,4-c][1,8]naphthyridin-9-yl)-4-methylphenyl)-5-(trifluoromethyl) nicotinamide] — 5.6-fold lower, 0.1 nM
- Cc1ccc(NC(=O)c2ccnc(C(C)(C)F)c2)cc1-c1cnc2c(c1)N1CCOC[C@H]1C[C@H]2O [Example 142, 2-(2-fluoropropan-2-yl)-N-(3-((4aR,6R)-6-hydroxy-1,2,4,4a,5,6-hexahydro-[1,4]oxazino[4,3-a][1,5]naphthyridin-9-yl)-4-methylphenyl)isonicotinamide] — 27-fold lower, 0.021 nM
- Cc1ncc(NC(=O)c2cccc(C(F)(F)F)c2)cc1-c1cc2c(nn1)[C@H](O)C[C@@H]1COCCN21 (racemic) [Example 47, (rac)-(trans)-N-(5-(5-hydroxy-5,6,6a,7,9,10-hexahydropyridazino[3′,4′:5,6]pyrido[2,1-c][1,4]oxazin-2-yl)-6-methylpyridin-3-yl)-3-(trifluoromethyl)benzamide] — 7.7-fold lower, 0.073 nM
- Cc1ccc(NC(=O)c2ccnc(C(F)(F)F)c2)cc1-c1ccc2c(=O)c(C(=O)O)c3n(c2c1)CCOC3 [Example 2, 9-(2-methyl-5-(2-(trifluoromethyl)isonicotinamido)phenyl)-6-oxo-1,2,4,6-tetrahydro-[1,4]oxazino[4,3-a]quinoline-5-carboxylic Acid] — 4.1-fold lower, 0.136 nM
- Cc1ccc(NC(=O)c2ccnc(C(C)(C)F)c2)cc1-c1cnc2c(c1)N1CCOC[C@H]1C[C@@H]2O (racemic) [Example 141, rac-cis-2-(2-fluoropropan-2-yl)-N-(3-(6-hydroxy-1,2,4,4a,5,6-hexahydro-[1,4]oxazino[4,3-a][1,5]naphthyridin-9-yl)-4-methylphenyl)isonicotinamide] — 130-fold lower, 0.0042 nM
- Cc1ccc(NC(=O)c2ccnc(C(F)(F)F)c2)cc1-c1cnc2c(c1)N1CCOC[C@H]1C(F)(F)[C@H]2O [Example 167, N-(3-((4aS,6S)-5,5-difluoro-6-hydroxy-1,2,4,4a,5,6-hexahydro-[1,4]oxazino[4,3-a][1,5]naphthyridin-9-yl)-4-methylphenyl)-2-(trifluoromethyl)isonicotinamide] — 7.3-fold lower, 0.077 nM
- Cc1ncc(NC(=O)c2ccnc(C(C)(F)F)c2)cc1-c1ccc2c(c1)N1CCOC[C@H]1[C@@](C)(C#N)C2 [Example 375, N-(5-((4aR,5S)-5-cyano-5-methyl-1,2,4,4a,5,6-hexahydro-[1,4]oxazino[4,3-a]quinolin-9-yl)-6-methylpyridin-3-yl)-2-(1,1-difluoroethyl)isonicotinamide] — within 1.5-fold, 0.4 nM
